Laboratory results taken from patent US6767907B2, “4-aryl-1-(indanmethyl dihydrobenzofuranmethyl or dihydrobenzothiophenemethyl) piperidines tetrahydropyridines or piperazines” (H. Lundbeck A/S, priority 1994, dated 2004).
Structures can show the parent of a compound that is named as a salt.

Assays:
5-HT2A receptors = target: T1, 5-HT2A receptors (Rattus norvegicus, UniProt P14842); assay: Inhibition of 3H-Ketanserin binding to 5-HT2 receptors in rat cortex in vitro; conditions: 3H-Ketanserin 0.5 nM; membranes from rat cortex; read-out: 3H Ketanserin (5-HT2A) binding, IC50
T1 construct: 5-HT2A receptors in membranes from rat is determined in vitro; from tissue; host or cells: rat cortex membranes
T1 sequence (P14842 whole entry): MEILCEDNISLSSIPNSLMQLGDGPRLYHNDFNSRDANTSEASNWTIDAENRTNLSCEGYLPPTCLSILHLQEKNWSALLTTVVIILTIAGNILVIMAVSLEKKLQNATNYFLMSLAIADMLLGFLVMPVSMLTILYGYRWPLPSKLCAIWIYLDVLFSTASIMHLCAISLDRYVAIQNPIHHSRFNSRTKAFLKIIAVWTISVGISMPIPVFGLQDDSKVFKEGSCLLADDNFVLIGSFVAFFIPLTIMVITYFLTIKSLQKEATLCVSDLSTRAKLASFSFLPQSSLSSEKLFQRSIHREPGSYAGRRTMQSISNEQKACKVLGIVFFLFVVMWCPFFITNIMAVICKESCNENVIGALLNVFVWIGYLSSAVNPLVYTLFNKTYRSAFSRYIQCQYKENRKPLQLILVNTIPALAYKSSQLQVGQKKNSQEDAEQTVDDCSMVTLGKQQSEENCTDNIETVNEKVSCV
Experimental: Inhibition of ^3H-Ketanserin Binding to 5-HT2 Receptors in Rat Cortex in vitro.
By this method the inhibition by drugs of the binding of ^3H-Ketanserin (0.5 nM) to 5-HT2A receptors in membranes from rat is determined in vitro .

5-HT1A receptors = target: T2, 5-HT1A receptors (Rattus norvegicus, UniProt P19327); assay: Inhibition of 3H-8-OH-DPAT binding to serotonin 5-HT1A receptors in rat brain in vitro; conditions: 3H-8-OH-DPAT 1 nM; for IC50: membranes from rat brain minus cerebellum, read-out: 3H 8-OH DPAT (5-HT1A) binding, IC50
T2 construct: 5-HT1A receptors in membranes from rat brain minus cerebellum; from tissue; host or cells: rat brain minus cerebellum, membranes
T2 sequence (P19327 1-422): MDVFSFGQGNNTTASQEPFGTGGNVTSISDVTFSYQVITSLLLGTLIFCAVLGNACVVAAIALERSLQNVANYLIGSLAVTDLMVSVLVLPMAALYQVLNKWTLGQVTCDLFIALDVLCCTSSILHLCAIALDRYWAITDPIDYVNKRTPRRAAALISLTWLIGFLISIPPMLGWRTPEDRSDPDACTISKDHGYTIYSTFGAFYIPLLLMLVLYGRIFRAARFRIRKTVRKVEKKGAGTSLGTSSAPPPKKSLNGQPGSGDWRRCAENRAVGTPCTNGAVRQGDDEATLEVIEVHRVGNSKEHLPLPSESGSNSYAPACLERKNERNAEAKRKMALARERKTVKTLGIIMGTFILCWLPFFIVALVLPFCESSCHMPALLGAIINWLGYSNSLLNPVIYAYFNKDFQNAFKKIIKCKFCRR
Experimental: By this method the inhibition by drugs of the binding of the 5-HT1A agonist ^3H-8-OH-DPAT (1 nM) to 5-HT1A receptors in membranes from rat brain minus cerebellum is determined in vitro . Accordingly, this is a test for affinity for the 5-HT1A receptor. The test is performed as described by Hyttel et al., Drug. Dev. Res., 1988, 15, 389-404.

SMILES | melting point [°C] | IC50 (5-HT2A receptors) [nM] | other results
CS(=O)(=O)Nc1ccc2c(c1)C(CN1CC=C(c3ccc(Cl)cc3)CC1)CC2 (centres unmarked) (as salt: oxalate) [Compound 4m, 4-(4-Chlorophenyl)-1-(6-methansulphonylaminoindan-1-ylmethyl)-1,2,3,6-tetrahydropyperidine] | 176 to 178 | – | –
CC(=O)Nc1ccc2c(c1)C(CN1CC=C(c3c[nH]c4ccc(Cl)cc34)CC1)CC2 (centres unmarked) (as salt: oxalate) [Compound 11g, 3-[1-(6-Acetylaminoindan-1-ylmethyl)-1,2,3,6-tetrahydropyridin-4-yl]-5-chloro-1H-indole] | 220 to 223 | – | –
CC(=O)Nc1ccc2c(c1)C(CN1CCC(c3c[nH]c4ccc(F)cc34)CC1)CC2 (centres unmarked) [Compound 11c, 3-[1-(6-Acetylaminoindan-1-ylmethyl)piperidin-4-yl]-5-fluoro-1H-indole] | – | 15 | IC50 (5-HT1A receptors): 16 nM
CC(=O)Nc1ccc2c(c1)C(CN1CC=C(c3c[nH]c4cc(Cl)ccc34)CC1)CC2 (centres unmarked) (as salt: oxalate) (hydrate or solvate) [Compound 11e, 3-[1-(6-Acetylaminoindan-1-ylmethyl)-1,2,3,6-tetrahydropyridin-4-yl]-6-chloro-1H-indole] | 151 to 164 | – | –
CC(=O)Nc1ccc2c(c1)C(CN1CCC(c3c[nH]c4ccc(F)cc34)CC1)CC2 (centres unmarked) (as salt: oxalate) [Compound 11c, 3-[1-(6-Acetylaminoindan-1-ylmethyl)piperidin-4-yl]-5-fluoro-1H-indole] | 145 to 149 | – | –
Nc1ccc2c(c1)C(CN1CCN(c3ccc(Cl)cc3)CC1)CC2 (centres unmarked) [Compound 2e, 1-(6-Aminoindan-1-ylmethyl)-4-(4-chlorophenyl)piperazine] | 98 to 109 | – | –
CC(=O)Nc1ccc2c(c1)C(CN1CC=C(c3c[nH]c4ccc(Cl)cc34)CC1)CS2 (centres unmarked) (as salt: oxalate) [Compound 11b, 3-[1-(5-Acetylamino-2,3-dihydrobenzothiophen-3-ylmethyl)-1,2,3,6-tetrahydropyridin-4-yl]-5-chloro-1H-indole] | 214 to 216 | – | –
Nc1ccc2c(c1)C(CN1CCC(c3ccc(F)cc3)CC1)CC2 (centres unmarked) [Compound 2a] | – | 2.5 | IC50 (5-HT1A receptors): 480 nM
CNC(=O)Nc1ccc2c(c1)C(CN1CCN(c3ccc4c(c3)OCO4)CC1)CC2 (centres unmarked) (as salt: oxalate) [Compound 5d, 1-(6-Methylaminocarbonylaminoindan-1-ylmethyl)-4-(3,4-methylendioxyphenyl)piperazine] | 132 to 133 | – | –
CC(=O)Nc1ccc2c(c1)C(CN1CCC(c3c[nH]c4ccc(Cl)cc34)CC1)CS2 (centres unmarked) [Compound 11a, 3-[1-(5-Acetylamino-2,3-dihydrobenzothiophen-3-ylmethyl)piperidin-4-yl]-5-chloro-1H-indole] | – | 42 | IC50 (5-HT1A receptors): 28 nM
CC(=O)Nc1ccc2c(c1)C(CN1CCC(c3cn(C)c4cc(Cl)ccc34)CC1)CC2 (centres unmarked) [Compound 15b, 3-[1-(6-Acetylaminoindan-1-ylmethyl)piperidin-4-yl]-6-chloro-1-m ethyl-1H-indole] | – | 300 | inhibition at 0.1 µM (5-HT1A receptors; read-out: 3H 8-OH DPAT (5-HT1A) binding, % inhibition of binding at 100 nM, at 100 nM, rat brain membranes): 25%
Nc1ccc2c(c1)C(CN1CC=C(c3ccc(F)cc3)CC1)CC2 (centres unmarked) | 78 to 84 | – | –
CC(=O)Nc1ccc2c(c1)C(CN1CCC(O)(c3ccc(Cl)c(C(F)(F)F)c3)CC1)CC2 (centres unmarked) (as salt: oxalate) | 163 to 165 | – | –
CC(=O)Nc1ccc2c(c1)C(CN1CCC(c3cn(C)c4cc(Cl)ccc34)CC1)CC2 (centres unmarked) (as salt: oxalate) [Compound 15b, 3-[1-(6-Acetylaminoindan-1-ylmethyl)piperidin-4-yl]-6-chloro-1-m ethyl-1H-indole] | 202 to 205 | – | –
CCOC(=O)Nc1ccc2c(c1)C(CN1CCC(c3ccc(F)cc3)CC1)CC2 (centres unmarked) (as salt: fumarate) [Compound 4l, 1-(6-Ethyloxycarbonylaminoindan-1-ylmethyl)-4-(4-fluorophenyl)piperidine] | 191 to 193 | – | –
CC(=O)Nc1ccc2c(c1)C(CN1CC=C(c3c[nH]c4ccc(F)cc34)CC1)CS2 (centres unmarked) (as salt: oxalate) [Compound 11d, 3-[1-(5-Acetylamino-2,3-dihydrobenzothiophen-3-ylmethyl)-1,2,3,6-tetrahydropyridin-4-yl]-5-fluoro-1H-indole] | 155 to 165 | – | –
CC(=O)Nc1ccc2c(c1)C(CN1CCC(c3c[nH]c4cc(Cl)ccc34)CC1)CC2 (centres unmarked) (as salt: oxalate) [Compound 11f, 3-[1-(6-Acetylaminoindan-1-ylmethyl)piperidin-4-yl]-6-chloro-1H-indole] | 122 to 130 | – | –
CC(=O)Nc1ccc2c(c1)C(CN1CCN(c3ccccc3Cl)CC1)CC2 (centres unmarked) (as salt: hydrochloride) [Compound 4f, 1-(6-Acetylaminoindan-1-ylmethyl)-4-(2-chlorophenyl)piperazine] | 195 to 203 | – | –
CNC(=S)Nc1ccc2c(c1)C(CN1CCC(c3ccc(F)cc3)CC1)CC2 (centres unmarked) (as salt: fumarate) [Compound 5c, 4-(4-Fluorophenyl)-1-(6-methylaminothiocarbonylaminoindan-1-ylmethyl)piperidine] | 181 to 183 | – | –
CC(=O)Nc1ccc2c(c1)C(CN1CC=C(c3ccc(Cl)cc3)CC1)CC2 (centres unmarked) (as salt: oxalate) | 223 to 226 | – | –
CC(=O)Nc1ccc2c(c1)C(CN1CCC(n3ccc4cc(Cl)ccc43)CC1)CC2 (centres unmarked) | 189 to 191 | – | –
CC(=O)Nc1ccc2c(c1)C(CN1CCN(c3ccc4c(c3)OCO4)CC1)CC2 (centres unmarked) [Compound 4q, 1-(6-Acetylaminoindan-1-ylmethyl)-4-(3,4-methylenedioxyphenyl)piperazine] | 188 to 189 | – | –
Nc1ccc2c(c1)C(CN1CCC(c3ccc(F)cc3)CC1)CC2 (centres unmarked) (as salt: hydrochloride) [Compound 2a] | 198 to 201 | – | –
COc1ccccc1N1CCN(CC2CCc3ccc(NC(C)=O)cc32)CC1 (centres unmarked) (as salt: oxalate) [Compound 4g, 1-(6-Acetylaminoindan-1-ylmethyl)-4-(2-methoxyphenyl)piperazine] | 210 to 213 | – | –

Second part, led by results:

melting point [°C] | IC50 (5-HT2A receptors) [nM] | SMILES | other results
– | 2.6 | NC(=O)Nc1ccc2c(c1)C(CN1CCC(c3ccc(F)cc3)CC1)CC2 (centres unmarked) [Compound 7a, 1-(6-Aminocarbonylaminoindan-1-ylmethyl)-4-(4-fluorophenyl)piperidine] | IC50 (5-HT1A receptors): 13 nM
– | 3.5 | O=C1CCCN1c1ccc2c(c1)C(CN1CCC(c3ccc(F)cc3)CC1)CC2 (centres unmarked) [Compound 12a, 4-(4-Fluorophenyl)-1-[6-(1-pyrrolidin-2-onyl)indan-1-ylmethyl]piperidine] | IC50 (5-HT1A receptors): 340 nM
– | 1.6 | CNc1ccc2c(c1)C(CN1CCC(c3ccc(F)cc3)CC1)CC2 (centres unmarked) [Compound 16a, 4-(4-Fluorophenyl)-1-(6-methylaminoindan-1-ylmethyl)piperidine] | IC50 (5-HT1A receptors): 170 nM
– | 9.1 | CN(C)C(=O)Nc1ccc2c(c1)C(CN1CCC(c3ccc(F)cc3)CC1)CC2 (centres unmarked) [Compound 6a, 1-(6-Dimethylaminocarbonylaminoindan-1-ylmethyl)-4-(4-fluorophenyl)piperidine] | IC50 (5-HT1A receptors): 1200 nM
– | 16 | CC(=O)Nc1ccc2c(c1)C(CN1CCC(c3ccc(F)cc3)CC1)CC2 (single isomer, unassigned; (+)) [Compound 14a, (+)-1-(6-Acetylaminoindan-1-ylmethyl)-4-(4-fluorophenyl)piperidine] | IC50 (5-HT1A receptors): 120 nM
